Data taken from publication PMC6273491, “Two New Oleanane-Type Saponins with Anti-Proliferative Activity from Camellia oleifera Abel. Seed Cake” (Molecules, 2016).

Legend:
Format in all cases: cell-based
[1] = test system: human gastric carcinoma cells BGC-823; test: MTT anti-proliferative assay, BGC-823; details: 72 h treatment, read-out: Cell Lines IC50 BGC-823
Description: (§1) The isolated Compounds 1, 2 and total seed cake saponins (C. oleifera) were tested against five human tumor cell lines (human hepatocellular carcinoma cells BEL-7402, human gastric carcinoma cells BGC-823, human breast cancer cells MCF-7, human promyelocytic leukemia cells HL-60 and human oral epidermoid carcinoma cells KB) using the MTT in vitro assay. Taxol, an anticancer agent, was used as the positive control.
(§2) The procedure for the anti-proliferative activity assay was performed according to the MTT reduction method using the human tumor cell lines BEL-7402, BGC-823, MCF-7, HL-60 and KB (Nanjing KeyGEN BioTECH Co., LTD, Jiangsu, China). In brief, the human tumor cell lines in culture medium (100 μL) were placed in a cell of a 96-well plate at a concentration of 4 × 10^3 cells/mL and incubated at 37 °C in 5% CO2 for 24 h. After 24 h, an additional 100 μL of complete medium with either: no additions (negative control), 0.1% DMSO (solvent control), 10 μg/mL Taxol (positive control), or different concentrations (0.391, 0.781, 1.562, 3.125, 6.25, 12.5, 25 and 50 μM) of 1 or 2 or total saponins (0.391, 0.781, 1.562, 3.125, 6.25, 12.5, 25 and 50 μg/mL). The treated cells were incubated as above for 72 h. […] The optical density (OD) of each well was measured at 490 nm using a Tunable Microplate Reader (EL-x800, BioTek Instruments, Winooski, VT, USA). […]

[2] = test system: human hepatocellular carcinoma cells BEL-7402; test: MTT anti-proliferative assay, BEL-7402; details: 72 h treatment, read-out: Cell Lines IC50 BEL-7402
Description: as §1, §2

[3] = test system: human breast cancer cells MCF-7; test: MTT anti-proliferative assay, MCF-7; details: MCF7, 72 h treatment, read-out: Cell Lines IC50 MCF-7
Description: as §1, §2

[4] = test system: human oral epidermoid carcinoma cells KB; test: MTT anti-proliferative assay, KB; details: 72 h treatment, read-out: Cell Lines IC50 KB
Description: as §1, §2

[5] = test system: five human tumor cell lines (BEL-7402, BGC-823, MCF-7, HL-60 and KB); test: MTT anti-proliferative assay, panel of five human tumor cell lines; details: 72 h treatment, range across BEL-7402, BGC-823, MCF-7, HL-60, KB, read-out: anti-proliferative activity IC50 values, range over five cell lines
Description: as §1, §2

[6] = test system: human promyelocytic leukemia cells HL-60; test: MTT anti-proliferative assay, HL-60; details: 72 h treatment, read-out: Cell Lines IC50 HL-60
Description: as §1, §2

SMILES	IC50 [1] [µM]	IC50 [2] [µM]	IC50 [3] [µM]	IC50 [4] [µM]	IC50 [5] [µM]	IC50 [6] [µM]
CC=C(C)C(=O)OC1CC(C)(C)CC2C3=CCC4C5(C)CCC(OC6OC(C(=O)OC)C(O)C(OC7OC(CO)C(O)C(O)C7OC7OC(CO)C(O)C(O)C7O)C6OC6OC(CO)C(O)C(O)C6O)C(C)(C=O)C5CCC4(C)C3(C)CC(O)C12CO [Compound 1, 16α-hydroxy-22α-O-angeloyl-23α-aldehyde-28-dihydroxymethylene-olean-12-ene-3β-O-[β-D-galacto-pyranosyl-(1→2)]-[β-D-glucopyranosyl-(1→2)-β-D-galactopyranosy-(1→3)]-β-D-glucopyranosid-uronic acid methyl ester]	11.2	10.4	15.1	12.3	6.5 to 15.1	6.49
CC=C(C)C(=O)OC1CC(C)(C)CC2C3=CCC4C5(C)CCC(OC6OC(C(=O)OC)C(O)C(OC7OC(CO)C(O)C(O)C7O)C6OC6OC(CO)C(O)C(O)C6O)C(C)(C=O)C5CCC4(C)C3(C)CC(O)C12CO [Compound 2, 16α-hydroxy-22α-O-angeloyl-23α-aldehyde-28-dihydroxymethylene-olean-12-ene-3β-O-[β-D-galactopyranosyl-(1→2)]-[β-D-galactopyranosyl-(1→3)]-β-D-glucopyranosiduronic acid methyl ester]	5.5	4.22	3.92	3.47	1.8 to 5.5	1.8
